# Read-outs that look alike come from different tables or passages of the source.
# What was measured:
# [1] = biological target: T1, CypB (Homo sapiens, UniProt P23284); assay: biochemical
# T1 construct: PPIB (UniProtKB Entry P23284: residues 34–216); His6 with TEV site (2BT vector leader) (N); made in house; host or cells: E. coli BL21(DE3)
# Outline: (§1)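 Steps: cyclophilin plus compound 5 min at 2–3 °C; α-chymotrypsin added, 5 min more; Suc-AAPF-AMC substrate in LiCl/trifluoroethanol injected and fluorescence followed 330 s. Finals: 5 nM enzyme, 25 µM chymotrypsin, 5 µM substrate, 0.25% DMSO.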
# [2] = biological target: T2, CypH (Homo sapiens, UniProt O43447); assay: Chymotrypsin coupled prolyl-isomerase assay; format: biochemical
# T2 construct: PPIH (UniProtKB Entry O43447: residues 1–177); His6 with TEV site (2BT vector leader) (N); made in house; host or cells: E. coli BL21(DE3)
# Outline: as §1
# [3] = biological target: T3, CypC (Homo sapiens, UniProt P45877); assay: Chymotrypsin coupled prolyl-isomerase assay; format: biochemical
# T3 construct: PPIC (UniProtKB Entry P45877: residues 24–212); host or cells: E. coli BL21(DE3)
# Outline: as §1
# [4] = biological target: T4, CypE (Homo sapiens, UniProt Q9UNP9); assay: Chymotrypsin coupled prolyl-isomerase assay; format: biochemical
# T4 construct: PPIE (UniProtKB Entry Q9UNP9: residues 131–301); host or cells: E. coli BL21(DE3)
# Outline: as §1
# [5] = biological target: T5, CypA (Homo sapiens, UniProt P62937); assay: Chymotrypsin coupled prolyl-isomerase assay; format: biochemical
# T5 construct: PPIA (UniProtKB Entry P62937: residues 1–165); made in house; host or cells: E. coli BL21(DE3)
# Outline: as §1
# [6] = biological target: T6, CypG (Homo sapiens, UniProt Q13427); assay: Chymotrypsin coupled prolyl-isomerase assay; format: biochemical
# T6 construct: PPIG (UniProtKB Entry Q13427: residues 1–179); His6 with thrombin site (pET28a LIC leader) (N); host or cells: E. coli BL21(DE3)
# T6 sequence (Q13427 1-179): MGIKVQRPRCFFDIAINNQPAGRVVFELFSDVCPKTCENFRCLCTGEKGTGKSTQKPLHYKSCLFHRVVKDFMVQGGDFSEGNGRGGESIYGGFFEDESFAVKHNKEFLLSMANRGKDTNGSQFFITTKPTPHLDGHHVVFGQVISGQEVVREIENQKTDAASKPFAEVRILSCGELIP
# Outline: as §1
# [7] = biological target: Cyp40 (Homo sapiens, UniProt Q08752); assay: Chymotrypsin coupled prolyl-isomerase assay
# Outline: as §1
# [8] = biological target: T7, NKTR (Homo sapiens, UniProt P30414); assay: Chymotrypsin coupled prolyl-isomerase assay; format: biochemical
# T7 construct: NKTR (UniProtKB Entry P30414: residues 7–179); host or cells: E. coli BL21(DE3)
# T7 sequence (P30414 7-179): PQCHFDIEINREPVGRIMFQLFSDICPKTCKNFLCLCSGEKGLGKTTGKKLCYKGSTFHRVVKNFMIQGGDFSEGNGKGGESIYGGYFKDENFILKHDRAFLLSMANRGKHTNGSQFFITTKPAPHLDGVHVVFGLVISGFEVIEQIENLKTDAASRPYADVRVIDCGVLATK
# [9] = wild-type CypB, read-out: Wild-Type Cyclophilin Prolyl Isomerase Inhibition IC50 Values, CypB
# [10] = wild-type CypH, read-out: Wild-Type Cyclophilin Prolyl Isomerase Inhibition IC50 Values, CypH
# [11] = wild-type CypC, read-out: Wild-Type Cyclophilin Prolyl Isomerase Inhibition IC50 Values, CypC
# [12] = wild-type CypE, read-out: Wild-Type Cyclophilin Prolyl Isomerase Inhibition IC50 Values, CypE
# [13] = wild-type CypG, read-out: Wild-Type Cyclophilin Prolyl Isomerase Inhibition IC50 Values, CypG
# [14] = wild-type NKTR, read-out: Wild-Type Cyclophilin Prolyl Isomerase Inhibition IC50 Values, NKTR
# T3 sequence (P45877 24-212): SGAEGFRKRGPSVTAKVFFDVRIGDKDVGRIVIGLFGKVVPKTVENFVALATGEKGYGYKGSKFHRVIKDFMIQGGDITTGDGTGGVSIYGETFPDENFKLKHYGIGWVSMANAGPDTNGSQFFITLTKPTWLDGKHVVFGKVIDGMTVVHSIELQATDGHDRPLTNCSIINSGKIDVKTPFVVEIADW
# T2 sequence (O43447 whole entry, the tested form may be a part): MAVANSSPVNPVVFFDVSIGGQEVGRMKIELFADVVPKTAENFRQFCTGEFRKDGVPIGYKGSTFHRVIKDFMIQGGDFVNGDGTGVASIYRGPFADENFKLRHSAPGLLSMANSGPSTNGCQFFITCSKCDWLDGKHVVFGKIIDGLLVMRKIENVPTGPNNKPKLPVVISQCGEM
# T1 sequence (P23284 34-216): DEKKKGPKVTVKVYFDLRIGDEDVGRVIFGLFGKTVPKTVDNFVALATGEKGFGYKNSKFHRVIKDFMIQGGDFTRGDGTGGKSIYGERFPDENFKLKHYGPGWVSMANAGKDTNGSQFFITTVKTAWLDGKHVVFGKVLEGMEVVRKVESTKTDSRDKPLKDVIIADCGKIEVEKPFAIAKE
# Chain of Cyp40 (Q08752 1-183): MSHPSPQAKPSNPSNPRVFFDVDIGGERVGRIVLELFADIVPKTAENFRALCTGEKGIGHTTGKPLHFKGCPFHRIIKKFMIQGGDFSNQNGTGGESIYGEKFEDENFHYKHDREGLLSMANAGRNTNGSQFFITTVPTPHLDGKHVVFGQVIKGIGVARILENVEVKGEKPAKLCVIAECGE
# T5 sequence (P62937 whole entry, the tested form may be a part): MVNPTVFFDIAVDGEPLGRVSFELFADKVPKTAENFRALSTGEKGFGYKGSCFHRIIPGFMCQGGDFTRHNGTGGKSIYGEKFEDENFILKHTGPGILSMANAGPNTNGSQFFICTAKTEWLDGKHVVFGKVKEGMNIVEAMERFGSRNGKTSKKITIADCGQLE
# T4 sequence (Q9UNP9 131-301): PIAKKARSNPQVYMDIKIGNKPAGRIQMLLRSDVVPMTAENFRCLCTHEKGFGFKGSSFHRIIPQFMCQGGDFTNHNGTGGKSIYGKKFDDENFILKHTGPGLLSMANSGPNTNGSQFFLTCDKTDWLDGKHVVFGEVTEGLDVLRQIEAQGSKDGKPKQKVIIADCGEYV
compound,measurement,setting,value
NCCOCCNC(=O)[C@@H]1CCNC(=O)/C=C/C(=O)N2CCC[C@](Cc3ccccc3)(C2)C(=O)N[C@@H](Cc2ccc(-c3ccc(CC(C(=O)O)C(=O)O)cc3)cc2)C(=O)NCc2ccccc2CC(=O)N1 [Compound B52],IC50,"[1]; CypB (comparator for CypB E121S), read-out: Mutant Cyclophilin Prolyl Isomerase Inhibition IC50 Values, CypB",0.2 µM
same,IC50,"[1]; Independent replicate 1, read-out: IC50 CypB",0.2 ± 0.05 µM
same,IC50,"[1]; Independent replicate 2, read-out: IC50 CypB",0.19 ± 0.03 µM
same,IC50,"[1]; Independent replicate 3, read-out: IC50 CypB",0.21 ± 0.04 µM
same,IC50,"[1]; Independent replicate 4, read-out: IC50 CypB",0.2 ± 0.1 µM
same,IC50,"[1]; prolyl-isomerase inhibition, 5 nM cyclophilin, read-out: IC50 CypB",0.21 µM
same,IC50,"[1]; prolyl-isomerase inhibition, read-out: IC50 CypB",0.21 µM
same,IC50,[1]; [9],0.21 µM
same,IC50,"[2]; Independent replicate 1, read-out: IC50 CypH",> 100 µM
same,IC50,"[2]; Independent replicate 2, read-out: IC50 CypH",> 100 µM
same,IC50,"[2]; Independent replicate 3, read-out: IC50 CypH",> 100 µM
same,IC50,"[2]; Independent replicate 4, read-out: IC50 CypH",> 100 µM
same,IC50,"[2]; prolyl-isomerase inhibition, 5 nM cyclophilin, read-out: IC50 CypH",> 100 µM
same,IC50,"[2]; prolyl-isomerase inhibition, read-out: IC50 CypH",> 100 µM
same,IC50,[2]; [10],> 100 µM
same,IC50,"[3]; Independent replicate 1, read-out: IC50 CypC",> 100 µM
same,IC50,"[3]; Independent replicate 2, read-out: IC50 CypC",> 100 µM
same,IC50,"[3]; Independent replicate 3, read-out: IC50 CypC",> 100 µM
same,IC50,"[3]; Independent replicate 4, read-out: IC50 CypC",> 100 µM
same,IC50,"[3]; prolyl-isomerase inhibition, 5 nM cyclophilin, read-out: IC50 CypC",> 100 µM
same,IC50,"[3]; prolyl-isomerase inhibition, read-out: IC50 CypC",> 100 µM
same,IC50,[3]; [11],> 100 µM
same,IC50,"[4]; Independent replicate 1, read-out: IC50 CypE",0.21 ± 0.08 µM
same,IC50,"[4]; Independent replicate 2, read-out: IC50 CypE",0.4 ± 0.1 µM
same,IC50,"[4]; Independent replicate 3, read-out: IC50 CypE",0.3 ± 0.1 µM
same,IC50,"[4]; Independent replicate 4, read-out: IC50 CypE",0.36 ± 0.07 µM
same,IC50,[4]; [12],0.31 µM
same,IC50,"[5]; Independent replicate 2, read-out: IC50 CypA",0.9 ± 0.1 µM
same,IC50,"[5]; Independent replicate 3, read-out: IC50 CypA",0.9 ± 0.3 µM
same,IC50,"[5]; Independent replicate 4, read-out: IC50 CypA",1.4 ± 0.5 µM
same,IC50,"[5]; prolyl-isomerase inhibition, 5 nM cyclophilin, read-out: IC50 CypA",1.1 µM
same,IC50,"[6]; Independent replicate 1, read-out: IC50 CypG",~80 µM
same,IC50,"[6]; Independent replicate 2, read-out: IC50 CypG",> 100 µM
same,IC50,"[6]; Independent replicate 3, read-out: IC50 CypG",~80 µM
same,IC50,"[6]; Independent replicate 4, read-out: IC50 CypG",> 100 µM
same,IC50,"[6]; prolyl-isomerase inhibition, 5 nM cyclophilin, read-out: IC50 CypG",> 100 µM
same,IC50,"[6]; prolyl-isomerase inhibition, read-out: IC50 CypG",> 100 µM
same,IC50,[6]; [13],> 100 µM
same,IC50,"[7]; IC50 Cyp40, Independent replicate 1",13 ± 5 µM
same,IC50,"[7]; IC50 Cyp40, Independent replicate 2",30 ± 20 µM
same,IC50,"[7]; IC50 Cyp40, Independent replicate 3",20 ± 10 µM
same,IC50,"[7]; IC50 Cyp40, Independent replicate 4",20 ± 10 µM
same,IC50,"[7]; Wild-Type Cyclophilin Prolyl Isomerase Inhibition IC50 Values, Cyp40, wild-type Cyp40",22 µM
same,IC50,"[8]; Independent replicate 1, read-out: IC50 NKTR",> 100 µM
same,IC50,"[8]; Independent replicate 2, read-out: IC50 NKTR",> 100 µM
same,IC50,"[8]; Independent replicate 3, read-out: IC50 NKTR",> 100 µM
same,IC50,"[8]; Independent replicate 4, read-out: IC50 NKTR",> 100 µM
same,IC50,"[8]; prolyl-isomerase inhibition, 5 nM cyclophilin, read-out: IC50 NKTR",> 100 µM
same,IC50,"[8]; prolyl-isomerase inhibition, read-out: IC50 NKTR",> 100 µM
same,IC50,[8]; [14],> 100 µM
C[N+]1=C(C=CC=CC=C2N(CCCCCC(=O)NCCNC(=O)C3CCNC(=O)C=CC(=O)N4CCCC(Cc5ccccc5)(C4)C(=O)NC(Cc4ccc(-c5ccc(C(CC(=O)O)CC(=O)O)cc5)cc4)C(=O)NCc4ccccc4CC(=O)N3)c3ccccc3C2(C)C)C(C)(C)c2ccccc21 (stereo not shown) [*B53-Cy5],IC50,[1]; [9],> 10 µM
same,IC50,[2]; [10],> 10 µM
same,IC50,[3]; [11],> 10 µM
same,IC50,[4]; [12],> 10 µM
same,IC50,"[5]; wild-type CypA, read-out: Wild-Type Cyclophilin Prolyl Isomerase Inhibition IC50 Values, CypA",> 10 µM
same,IC50,[6]; [13],> 10 µM
same,IC50,"[7]; read-out: Wild-Type Cyclophilin Prolyl Isomerase Inhibition IC50 Values, Cyp40, wild-type Cyp40",> 10 µM
same,IC50,[8]; [14],> 10 µM

# Source: publication PMC9596378, “Discovery and molecular basis of subtype-selective cyclophilin inhibitors” (Nature Chemical Biology, 2022)
